ChEMBL document CHEMBL1629519, “2-Hydroxypropyl-β-cyclodextrin strongly improves water solubility and anti-proliferative activity of pyrazolo[3,4-d]pyrimidines Src-Abl dual inhibitors” (Eur J Med Chem, 2010)
In brackets after ≈: the same amount, converted by molar mass. Activity calls are given as the source filed them. The rule behind the calls is not given here.

Assays:
[1] = Aqueous solubility of the compound in dimethyl sulfoxide; type: physicochemical; conditions: aqueous solution with dimethyl sulfoxide
[2] = Lipophilicity, log P of the compound; type: physicochemical; conditions: octanol/water
[3] = Solubility of the compound in 30 % hydroxypropyl-beta-cyclodextrins solution; type: physicochemical; conditions: 30% hydroxypropyl-beta-cyclodextrin solution
[4] = system: HL-60; assay: Anti proliferative activity against human HL60 assessed as cell viability at 12.5 to 25 uM after 48 hrs by MTT assay; type: functional, cell-based
[5] = system: SAOS-2; assay: Anti proliferative activity against human Saos2 assessed as cell viability at 12.5 to 25 uM after 48 hrs by MTT assay; type: functional, cell-based
[6] = system: K562; assay: Antiproliferative activity against human K562 cells after 3 days by ATP lite 1 step assay; type: functional, cell-based; conditions: K562, 72 h
[7] = Antiproliferative activity against human KU812 cells after 3 days by ATP lite 1 step assay; type: functional, cell-based; conditions: KU812, 72 h

| Compound | solubility [1] [µM] | logP [2] | solubility [3] [µM] | IC50 [6] [µM] | Activity [4] | Activity [5] | IC50 [7] [µM] |
| --- | --- | --- | --- | --- | --- | --- | --- |
| CCCSc1nc(NCc2cccc(Cl)c2)c2cnn(CC(Cl)c3ccccc3)c2n1 (configuration not stated) | 0.107 (≈ 0.0506 µg/mL) | 7.4 | 910 (≈ 430 µg/mL) |  |  |  |  |
| CSc1nc(NCc2ccccc2)c2cnn(CC(Cl)c3ccccc3)c2n1 (configuration not stated) | 0.512 (≈ 0.21 µg/mL) | 5.49 | 838 (≈ 344 µg/mL) |  |  |  |  |
| CC(O)COC[C@H]1O[C@@H]2O[C@H]3[C@H](O)[C@@H](O)[C@@H](O[C@H]4[C@H](O)[C@@H](O)[C@@H](O[C@H]5[C@H](O)[C@@H](O)[C@@H](O[C@H]6[C@H](O)[C@@H](O)[C@@H](O[C@H]7[C@H](O)[C@@H](O)[C@@H](O[C@H]8[C@H](O)[C@@H](O)[C@@H](O[C@H]1[C@H](O)[C@H]2O)O[C@@H]8COCC(C)O)O[C@@H]7COCC(C)O)O[C@@H]6COCC(C)O)O[C@@H]5COCC(C)O)O[C@@H]4COCC(C)O)O[C@@H]3COCC(C)O (some centres not stated) |  |  |  |  | inactive | inactive |  |
| CSc1nc(NCc2cccc(Br)c2)c2cnn(CC(Cl)c3ccccc3)c2n1 (configuration not stated) | 0.141 (≈ 0.0689 µg/mL) | 6.37 | 390 (≈ 191 µg/mL) |  |  |  |  |
| CSc1nc(NCc2cccc(Cl)c2)c2cnn(CC(Cl)c3ccccc3)c2n1 (configuration not stated) | 0.295 (≈ 0.131 µg/mL) | 6.76 | 314 (≈ 140 µg/mL) | 7.19 |  |  | 24.1 |
| CSc1nc(NCc2ccccc2F)c2cnn(CC(Cl)c3ccccc3)c2n1 (configuration not stated) |  | 5.88 |  | 6.11 |  |  | 7.87 |

More lines, main results first:

| solubility [1] [µM] | logP [2] | solubility [3] [µM] | IC50 [6] [µM] | Compound | Activity [4] | Activity [5] | IC50 [7] [µM] |
| --- | --- | --- | --- | --- | --- | --- | --- |
| 0.158 (≈ 0.0724 µg/mL) | 7.41 | 612 (≈ 281 µg/mL) |  | CSc1nc(NCCc2ccc(Cl)cc2)c2cnn(CC(Cl)c3ccccc3)c2n1 (configuration not stated) |  |  |  |
| 0.166 (≈ 0.0704 µg/mL) |  | 947 (≈ 402 µg/mL) |  | CSc1nc(NCCc2ccccc2)c2cnn(CC(Cl)c3ccccc3)c2n1 (configuration not stated) |  |  |  |
| 0.588 (≈ 0.26 µg/mL) | 6.44 | 790 (≈ 349 µg/mL) |  | CSc1nc(NCCc2cccc(F)c2)c2cnn(CC(Cl)c3ccccc3)c2n1 (configuration not stated) |  |  |  |
